Like-named read-outs stand apart in the source and are kept apart here.
Assay: Part 1 SAD: plasma pharmacokinetics after single oral dose
Assay type: in vivo, human
Details: for CL/F / AUC(0-t) / Cmax / AUC(0-inf) / half-life / Vd/F / concentration at 8 h: geometric mean; for AUC(0-t) / Cmax / AUC(0-inf) / half-life / Vd/F / concentration at 8 h / Tmax: human, plasma; for Vd/F: read-out: Vz/F; for concentration at 8 h: read-out: C8 (concentration at 8-hour post dose)
Description: There were approximately 8 subjects per cohort. Dose levels were as follows:
Blood samples (up to 5 mL per sample) were collected for PK analysis of Compound A and its metabolite(s). The actual time of sample collection was recorded. The PK samples of the subjects randomized to placebo treatment were not analyzed. Any remaining plasma PK samples were used to explore the presence of any additional metabolites and/or biomarkers.
Plasma and urine concentrations of Compound A and its metabolite(s) were measured using a validated high-performance liquid chromatography with tandem mass spectrometry.
The plasma PK parameters of Compound A and its metabolite(s) were determined from the plasma concentration-time profiles for all evaluable subjects. Actual sampling times, rather than scheduled sampling times, were used in all computations involving sampling times. The below lower limit of quantitation concentrations were set to zero prior to PK parameter estimation.
The PK population was used for summaries of plasma Compound A and its metabolite(s) concentrations and for analyses, summaries, and listing of PK parameters. Dose proportionality for Cmax, AUC0-t, and AUC0-∞ was evaluated using a linear model of logarithmically transformed values to assess the slope parameter, and the 95% CI for the slope was estimated. Where the 95% CI of the slope includes 1, it was considered as evidence of dose proportionality for that PK parameter.

[1] = 1 mg single dose (low end of 1 to 50 mg)
[2] = 50 mg single dose (high end of 1 to 50 mg)

CS(=O)(=O)N[C@H]1CCCN2C(=O)COc3ccccc3C3CCC(CC3)OCC12 (stereo partly drawn) [Compound A, N-[(4S,4aR,7α,10α)-1,2,3,4,4a,5,7,8,9,10,16,17-dodecahydro-17-oxo-7,10-ethanopyrido[1,2-d][1,7,4]benzodioxaazacyclotridecin-4-yl]methanesulfonamide]
geometric mean AUC0-inf/D [1]: 11.6 | geometric mean Cmax/D [1]: 3.2 | CL/F (1 mg single dose, N = 5): 86.0 L/h | CL/F (3 mg single dose, N = 3): 95.6 L/h | CL/F (8 mg single dose, N = 4): 96.4 L/h | CL/F (15 mg single dose, N = 5): 89.8 L/h | CL/F (25 mg single dose): 91.1 L/h | geometric mean AUC0-inf/D [2]: 10.1 | geometric mean Cmax/D [2]: 0.59 | CL/F (50 mg single dose, N = 2): 99.3 L/h | AUC(0-t) (oral, 1 mg single dose): 12.3 ng·h/mL | Cmax (oral, 1 mg single dose): 3.23 ng/mL | AUC(0-inf) (oral, 1 mg single dose, N = 5): 11.6 ng·h/mL | half-life (oral, 1 mg single dose, N = 5): 2.79 h | Vd/F (oral, 1 mg single dose, N = 5): 346 L | concentration at 8 h (oral, 1 mg single dose): 0.337 ng/mL | Tmax (oral, 1 mg single dose, median, read-out: Tmax): 1.5 h | AUC(0-t) (oral, 3 mg single dose): 36.6 ng·h/mL | Cmax (oral, 3 mg single dose): 6.15 ng/mL | AUC(0-inf) (oral, 3 mg single dose, N = 3): 31.4 ng·h/mL | half-life (oral, 3 mg single dose, N = 3): 2.31 h | Vd/F (oral, 3 mg single dose, N = 3): 318 L | concentration at 8 h (oral, 3 mg single dose): 1.24 ng/mL | Tmax (oral, 3 mg single dose, median, read-out: Tmax): 1.5 h | AUC(0-t) (oral, 8 mg single dose): 81.3 ng·h/mL | Cmax (oral, 8 mg single dose): 11.5 ng/mL | AUC(0-inf) (oral, 8 mg single dose, N = 4): 83 ng·h/mL | half-life (oral, 8 mg single dose, N = 4): 16 h | Vd/F (oral, 8 mg single dose, N = 4): 2220 L | concentration at 8 h (oral, 8 mg single dose): 2.47 ng/mL | Tmax (oral, 8 mg single dose, median, read-out: Tmax): 2 h | AUC(0-t) (oral, 15 mg single dose): 165 ng·h/mL | Cmax (oral, 15 mg single dose): 22.1 ng/mL | AUC(0-inf) (oral, 15 mg single dose, N = 5): 167 ng·h/mL | half-life (oral, 15 mg single dose, N = 5): 10.1 h | Vd/F (oral, 15 mg single dose, N = 5): 1300 L | concentration at 8 h (oral, 15 mg single dose): 4.07 ng/mL | Tmax (oral, 15 mg single dose, median, read-out: Tmax): 2.5 h | AUC(0-inf) (oral, 25 mg single dose): 274 ng·h/mL | AUC(0-t) (oral, 25 mg single dose): 241 ng·h/mL | Cmax (oral, 25 mg single dose): 23.1 ng/mL | half-life (oral, 25 mg single dose): 12.5 h | concentration at 8 h (oral, 25 mg single dose): 5.7 ng/mL | Vd/F (oral, 25 mg single dose): 1650 L | Tmax (oral, 25 mg single dose, median, read-out: Tmax): 1 h | AUC(0-t) (oral, 50 mg single dose): 357 ng·h/mL | Cmax (oral, 50 mg single dose): 29.3 ng/mL | AUC(0-inf) (oral, 50 mg single dose, N = 2): 503 ng·h/mL | half-life (oral, 50 mg single dose, N = 2): 7.34 h | Vd/F (oral, 50 mg single dose, N = 2): 1050 L | concentration at 8 h (oral, 50 mg single dose): 7.83 ng/mL | Tmax (oral, 50 mg single dose, median, read-out: Tmax): 2 h | Tmax (single oral doses 1 to 50 mg, fasted subjects, read-out: median Tmax, range across doses): 1 to 2.5 h | fold change in geometric mean AUC (AUClast) for 50-fold change in dose (single doses 1 to 50 mg): 29 fold | fold change in geometric mean Cmax for 50-fold change in dose (single doses 1 to 50 mg): 9 fold

Reference: patent publication US20250186405A1, “Compound For Use In Treating Narcolepsy” (Alkermes, Inc., priority 2023, published 2025)
